Reference: PMC6056499, “A systematic dissection of sequence elements determining β-Klotho and FGF interaction and signaling” (Scientific Reports, 2018)
Where two headings read alike, the source gives them in different places. Values belong to the substance of their own block, whether it stands above or below them. No end group written: not given here.

Experiments:
β-Klotho/FGFR complex = assay: Elk1-luciferase reporter assay in HEK293T reporter cells transiently transfected with full-length WT β-Klotho; format: cell-based, human; details: 6 h treatment, mean ± SD of three independent experiments, read-out: EC50, stimulation of Elk1-luciferase reporter activity (KLB WT)
Description: (§1) To measure the signaling activity of β-Klotho mutants, ELK luciferase assay was performed in HEK293T cells that were stably transfected with reporter constructs containing 5 × UAS upstream of luciferase and Gal4 DNA-binding domain fused to ELK1. Briefly, HEK293T reporter cells were maintained in DMEM supplemented with 10% (v/v) FBS (Gibco) and 2 mM GlutaMax (Gibco) in a 37 °C incubator with 5% CO2. Cells were plated on 96-well plates in growth medium and incubated overnight. The next day, cells were transfected with expression vectors encoding full-length β-Klotho WT or mutants using the Lipofectamine 2000 transfection reagent (Invitrogen) according to the manufacturer’s protocol. Cells were serum-starved in DMEM supplemented with 5% (v/v) FBS (Gibco) and 2 mM GlutaMax (Gibco) overnight the day after transfection and treated with FGF21 for 6 hours at 37 °C with 5% CO2, after which the cells were lysed in Bright-Glo luciferase reagent (Promega). Luciferase activity was measured in relative luminescence units on the EnVision Multilabel Plate Reader (PerkinElmer) according to the manufacturer’s instructions. All assays were performed in duplicates. EC50 values were determined from a three-parameter logistic regression model with the least squares fit using GraphPad Prism version 7.

[1] = tested on: FGFR (expressed endogenously in HEK293T reporter cells); assay: Elk1-luciferase reporter assay in HEK293T reporter cells without β-Klotho (no KLB); format: cell-based, human; details: d.n.c = did not converge
Description: as §1, with “The next day, cells were transfected with expression vectors encoding full-length β-Klotho WT or mutants using the Lipofectamine 2000 transfection reagent (Invitrogen) according to the manufacturer’s protocol.” left out

β-Klotho = biological target: T1, β-Klotho (Homo sapiens, UniProt Q86Z14); assay: AlphaScreen competition binding assay (inhibition of β-Klotho binding to biotinylated FGF19 or FGF21); details: Suppl Fig S6A, 20 nM β-Klotho ECD 6×His, 40 nM biotinylated human FGF21, d.n.c. = did not converge
T1 construct: the ECD of human β-Klotho (aa1–992) fused with a 6 × His tag at the C-terminus; made in house
T1 sequence (Q86Z14 1-992): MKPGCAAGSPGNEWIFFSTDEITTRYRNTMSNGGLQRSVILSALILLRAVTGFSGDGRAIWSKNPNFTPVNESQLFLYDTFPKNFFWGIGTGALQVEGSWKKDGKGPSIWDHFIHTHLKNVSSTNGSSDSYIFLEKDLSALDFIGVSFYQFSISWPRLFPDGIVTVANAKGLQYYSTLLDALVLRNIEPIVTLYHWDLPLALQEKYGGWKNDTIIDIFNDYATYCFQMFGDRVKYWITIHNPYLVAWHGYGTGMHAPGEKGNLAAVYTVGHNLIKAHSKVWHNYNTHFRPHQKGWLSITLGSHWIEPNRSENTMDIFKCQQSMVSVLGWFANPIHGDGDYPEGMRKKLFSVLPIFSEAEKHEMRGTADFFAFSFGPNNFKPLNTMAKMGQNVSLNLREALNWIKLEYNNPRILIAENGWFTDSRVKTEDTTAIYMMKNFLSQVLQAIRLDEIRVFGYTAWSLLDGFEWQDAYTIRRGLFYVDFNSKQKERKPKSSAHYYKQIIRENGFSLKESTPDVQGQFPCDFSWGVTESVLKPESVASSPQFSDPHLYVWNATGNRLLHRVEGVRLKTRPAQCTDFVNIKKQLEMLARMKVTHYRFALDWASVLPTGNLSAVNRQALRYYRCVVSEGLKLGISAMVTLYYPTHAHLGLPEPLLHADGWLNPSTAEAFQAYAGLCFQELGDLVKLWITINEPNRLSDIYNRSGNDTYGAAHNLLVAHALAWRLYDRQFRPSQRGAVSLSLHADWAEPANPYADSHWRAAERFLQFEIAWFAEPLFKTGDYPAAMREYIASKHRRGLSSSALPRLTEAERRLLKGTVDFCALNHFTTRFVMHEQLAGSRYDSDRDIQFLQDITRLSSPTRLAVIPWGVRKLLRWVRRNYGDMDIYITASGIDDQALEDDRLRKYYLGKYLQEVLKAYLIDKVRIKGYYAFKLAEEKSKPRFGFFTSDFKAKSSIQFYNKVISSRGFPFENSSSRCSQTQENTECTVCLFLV
Description: FGF19 and FGF21 C-terminal WT and mutant peptides were custom synthesized and purified (>95% purity) (LifeTein LLC, South Plainfield, NJ). Binding of FGF19 and FGF21 peptides to β-Klotho was assessed using an AlphaScreen® assay. Briefly, 20 nM of β-Klotho ECD 6 × His, varying amounts of FGF19 and 21 peptides, and 40 nM of biotinylated human FGF19 or FGF21 protein were prepared in AlphaLISA universal buffer (PerkinElmer) and added to individual wells in 384-well white opaque plates (Greiner Bio-One). Subsequently, streptavidin donor beads and nickel chelate (Ni-NTA) acceptor beads (AlphaScreen Histidine detection kit; PerkinElmer) were diluted to 40 µg/mL and added to the plates. Total reaction volume was 8 µL. Plates were incubated for 3 hours at room temperature protected from light and read on the EnVision Multilabel Plate Reader (PerkinElmer) according to the manufacturer’s instructions. Assays were performed in triplicate. IC50 values were determined from a three-parameter logistic regression model with the least squares fit using GraphPad Prism version 7.

EC50 (β-Klotho/FGFR complex; Fig 3A): 0.038 ± 0.024 nM
Substance: FGF1: a prototypical paracrine FGF [reference compound]
EC50 ([1]; Fig 3A, mean ± SD of three independent experiments, read-out: EC50, stimulation of Elk1-luciferase reporter activity (no KLB)): 0.049 ± 0.037 nM

EC50 (β-Klotho/FGFR complex; Fig 3D): 2.88 ± 1.43 nM
Substance: FGF19: mature human FGF19 protein, endocrine fibroblast growth factor
EC50, stimulation of Elk1-luciferase reporter activity (no KLB) ([1]; Fig 3D): d.n.c

IC50, competition with FGF21 (FGF21 C-terminal peptides) (β-Klotho): d.n.c
Substance: PQPPDAGSSDPLSMVGPSQGRSPSYAS [188V-A]

IC50, competition with FGF21 (FGF21 C-terminal peptides) (β-Klotho): d.n.c
Substance: PQPPDVGSSDALSMVGPSQGRSPSYAS [193P-A]

IC50 (β-Klotho; read-out: IC50, competition with FGF21 (FGF21 C-terminal peptides)): 7.3 nM
Substance: PQPPDVGSSDPLSMVGPSQGASPSYAS [203R-A]
